Key:
[1] = system: TNF-α production or secretion by human leukemia cells HL-60 (Okadaic acid stimulation); assay: Influence on TNF-α production or secretion by HL-60 cells stimulated by Okadaic acid (ELISA of supernatant); format: cell-based; conditions: for amount of TNF-α in the supernatant, Okadaic acid alone = 100%: HL-60, Okadaic acid 50 nM, 16 hours (Table 8); for amount of TNF-α, Okadaic acid alone = 100%: HL-60, Okadaic acid stimulation (Table 10)
Protocol: (§1) Human leukemia cells HL-60 produce tumor necrosis factor (TNF-α) by stimulation of Okadaic acid (9,10-Deepithio-9,10-didehydroacanthifolicin) or 12O-tetradecanoyl phorbol-13-acetate (TPA). Influences of the compounds of the present invention to production or secretion of TNF-α by them were observed.
Human leukemia cells (HL-60) were cultured by using a RPMI 1640 culture medium (including 5% fetal bovine serum), in a carbonic acid gas incubator (5% CO2, humidified, 37° C.). Then, the cells were pre-cultured in a RPMI 1640 culture medium (including 10% fetal bovine serum). Okadaic acid was added thereto, so that the final concentration was 50 nM based on the HL-60 cells (5×10^5 cells/ml) in an exponentially growing stage. Then, the compound of the present invention was added thereto so that the predetermined concentration could be obtained, to prepare a cell suspension, which was then cultured in a carbonic acid gas incubator (5% CO2, humidified, 37° C.). In this culture, a multiplate having 24 holes (produced by Corning) was used, and the cell suspension was injected in an amount of 0.5 ml per hole, to culture the cells.
16 hours after the culture started, the cells were removed by centrifugation (1000-2000 rpm×10 min), and the amount of TNF-α in the supernatant was measured in accordance with the method of Amersham, by using human TNF-α ELISA system (produced by Amersham).
The values in the Table are values obtained by supposing the amount of TNF-αin the supernatant of the culture medium when treated only with Okadaic acid having a final concentration of 50 nM, 100%.
Influences of the compounds of the present invention to production or secretion of TNF-α by Okadaic acid stimulation were observed, in the same manner as in Test Example 1.

[2] = system: TNF-α production or secretion by human leukemia cells HL-60 (TPA stimulation); assay: Influence on TNF-α production or secretion by HL-60 cells stimulated by TPA (ELISA of supernatant); format: cell-based; conditions: for amount of TNF-α in the supernatant, TPA alone = 100%: HL-60, TPA 10 nM, 16 hours (Table 9); for amount of TNF-α, TPA alone = 100%: HL-60, TPA stimulation (Table 11)
Protocol: as §1
The same operation was carried out as in Test Example 1, except that TPA (produced by Sigma) having a final concentration of 10 nM was used, instead of Okadaic acid having a final concentration of 50 nM.
The values in the Table are values obtained by supposing the amount of TNF-α in the supernatant of the culture medium when treated only with TPA having a final concentration of 10 nM, 100%.
Human leukemia cells (HL-60) produce tumor necrosis factor (TNF-α) by stimulation of 12O-tetradecanoyl phorbol-13-acetate (TPA). The influences of the compounds of the present invention to production of TNF-αby it were observed.
Human leukemia cells (HL-60) were cultured by using a RPMI 1640 culture medium (including 5% fetal bovine serum), in a carbonic acid gas incubator (5% CO2, humidified, 37° C.). Then, the cells were pre-cultured in a RPMI 1640 culture medium (including 10% fetal bovine serum). TPA was added thereto, so that the final concentration was 10 nM based on the HL-60 cells (5×10^5 cells/ml) in an exponentially growing stage. Then, the compound of the present invention was added thereto so that the predetermined concentration could be obtained, to prepare a cell suspension, which was then cultured in a carbonic gas incubator (5% CO2, humidified, 37° C.). In this culture, a multiplate having 24 holes (produced by Corning) was used, and the cell suspension was injected in an amount of 0.5 ml per hole, to culture the cells.
16 hours after the culture started, the cells were removed by centrifugation(1000-2000 rpm×10 min), and the amount of TNF-α in the supernatant was measured in accordance with the method of Amersham, by using human TNF-α ELISA system (produced by Amersham).
The values are obtained by supposing the amount of TNF-α when treated only with TPA having a final concentration of 10 nM, 100%.
The influences of the compounds of the present invention to production or secretion of TNF-α by TPA stimulation were observed, in the same manner as in Test Example 2.

[3] = system: angiogenesis under skin of mice; assay: Angiogenesis under skin of mice (b-FGF matrigel, amount of hemoglobin); format: in vivo, BALB/c male mice; parameters: key to Amount of hemoglobin, value in parentheses (Control = 100): % of control (control = 100), hemoglobin per matrigel; conditions: for Amount of hemoglobin, value in parentheses (Control = 100): experiment (b) (Table 15)
Protocol: By subcutaneously injecting a mixture having recombinant human fibroblast growth factor-basic added to matrigel, to the back of a mice, angiogenesis occurs under skin of the mice. By measuring the amount of hemoglobin in matrigel, angiogenesis can be quantified. Influences of the compounds of the present invention to angiogenesis were observed.
Matrigel (trademark; basement membrane matrix, phenol is not included, purchased from Becton Dickinson Labware) was added to Dulbecco's modified Eagle's medium (purchased from Sigma), so that the concentration was 9 mg/ml. Recombinant Human Fibroblast Growth Factor-basic (b-FGF, produced by Intergen) was added thereto, so that the concentration was 2 μg/700 μl. The mixture was subcutaneously injected to 6-week BALB/c male mice (Charles River Japan Inc.) in an amount of 700 μl per mouse. Everyday after matrigel injection, a suspension having the compound of the present invention added to 0.8% Tween 80 (purchased from Nacalai Tesque), so that the predetermined concentration could be obtained, was intraperitoneally injected to the mice. 8 days after matrigel injection, matrigel was taken out from the mice, which was then placed in 200 μl of 1% NH4OH at room temperature for 4 hours, to extract hemoglobin. The extraction and matrigel together were subjected to centrifugal separation (10000 rpm, 5 min). 100 μl of the obtained supernatant and 500 μl of Drabkin's reagent (purchased from Sigma) were mixed and left at room temperature. After left more than 15 minutes, absorbance of the supernatant at a wavelength of 540 nm was measured by using a spectrophotometer SPECTRA max 250 (produced by Molecular Devices). The amount of hemoglobin in the supernatant was obtained from the standard curve prepared by using hemoglobin standard (purchased from Sigma), and the amount of hemoglobin per matrigel obtained from a mouse was calculated.
The amount of the hemoglobin in each treatment fraction was corrected by the amount of hemoglobin wherein matrigel having no b-FGF added was injected to the mice, and 0.8% Tween 80 as a solvent alone was injected everyday.
Influences of the compounds of the present invention to angiogenesis under skin of mice were observed, in the same manner as in Test Example 8.

**Q.** For `C[C@H](C1CCCCC1)N1C(=O)c2c(F)c(F)c(F)c(F)c2C1=O` [Compound 69, (R)-2-(1-cyclohexylethyl)-4,5,6,7-tetrafluoro-1H-isoindole-1,3-dione], which “amount of TNF-α in the supernatant, Okadaic acid alone = 100%” value ([1]; compound 1 nM) is on record?
**A.** The value was 101%.

**Q.** What about the “amount of TNF-α in the supernatant, Okadaic acid alone = 100%” value ([1]; compound 10 nM) of the same compound?
**A.** Its value is 95%.

**Q.** And the “amount of TNF-α in the supernatant, Okadaic acid alone = 100%” value ([1]; compound 100 nM)?
**A.** The value was 59%.

**Q.** And the “amount of TNF-α in the supernatant, Okadaic acid alone = 100%” value ([1]; compound 0.3 μM)?
**A.** Its value is 10%.

**Q.** And the “amount of TNF-α in the supernatant, TPA alone = 100%” value ([2]; compound 10 nM)?
**A.** Its value is 100%.

**Q.** What about the “amount of TNF-α in the supernatant, TPA alone = 100%” value ([2]; compound 100 nM) of the same compound?
**A.** Its value is 102%.

**Q.** And the “amount of TNF-α in the supernatant, TPA alone = 100%” value ([2]; compound 0.3 μM)?
**A.** Its value is 98%.

**Q.** And the “Amount of hemoglobin, value in parentheses (Control = 100)” value ([3]; 1 mg/kg)?
**A.** Its value is 93.

**Q.** What about the Amount of hemoglobin ([3]; 1 mg/kg, experiment (b), Control 83.3 (Table 15)) of the same compound?
**A.** The Amount of hemoglobin was 77.2 μg/gel.

**Q.** And the “Amount of hemoglobin, value in parentheses (Control = 100)” value ([3]; 5 mg/kg)?
**A.** Its value is 49.

**Q.** What about the Amount of hemoglobin ([3]; 5 mg/kg, experiment (b), Control 83.3 (Table 15)) of the same compound?
**A.** The Amount of hemoglobin was 41.1 μg/gel.

**Q.** With `C[C@@H](c1ccccc1)N1C(=O)c2cccc([N+](=O)[O-])c2C1=O` [Compound 83, (S)-2-(1-phenylethyl)-4-nitro-1H-isoindole-1,3-dione] as the compound, how does the “amount of TNF-α in the supernatant, Okadaic acid alone = 100%” value ([1]; compound 1 nM) read?
**A.** The value was 100%.

**Q.** And the “amount of TNF-α in the supernatant, Okadaic acid alone = 100%” value ([1]; compound 10 nM)?
**A.** The value was 99%.

**Q.** What about the “amount of TNF-α in the supernatant, Okadaic acid alone = 100%” value ([1]; compound 100 nM) of the same compound?
**A.** Its value is 85%.

**Q.** And the “amount of TNF-α in the supernatant, Okadaic acid alone = 100%” value ([1]; compound 0.3 μM)?
**A.** Its value is 61%.

**Q.** And the melting point?
**A.** Its melting point is 115 to 117 °C.

**Q.** And the “amount of TNF-α in the supernatant, TPA alone = 100%” value ([2]; compound 10 nM)?
**A.** The value was 122%.

**Q.** What about the “amount of TNF-α in the supernatant, TPA alone = 100%” value ([2]; compound 100 nM) of the same compound?
**A.** The value was 187%.

**Q.** What about the “amount of TNF-α in the supernatant, TPA alone = 100%” value ([2]; compound 0.3 μM) of the same compound?
**A.** The value was 239%.

**Q.** With `C[C@H](c1ccccc1)N1C(=O)c2cccc([N+](=O)[O-])c2C1=O` [Compound 84, (R)-2-(1-phenylethyl)-4-nitro-1H-isoindole-1,3-dione] as the compound, how does the “amount of TNF-α in the supernatant, Okadaic acid alone = 100%” value ([1]; compound 1 nM) read?
**A.** The value was 99%.

**Q.** And the “amount of TNF-α in the supernatant, Okadaic acid alone = 100%” value ([1]; compound 10 nM)?
**A.** Its value is 104%.

**Q.** What about the “amount of TNF-α in the supernatant, Okadaic acid alone = 100%” value ([1]; compound 100 nM) of the same compound?
**A.** Its value is 88%.

**Q.** And the “amount of TNF-α in the supernatant, Okadaic acid alone = 100%” value ([1]; compound 0.3 μM)?
**A.** The value was 52%.

**Q.** What about the melting point of the same compound?
**A.** Its melting point is 115 to 117 °C.

**Q.** What about the “amount of TNF-α in the supernatant, TPA alone = 100%” value ([2]; compound 10 nM) of the same compound?
**A.** Its value is 100%.

**Q.** And the “amount of TNF-α in the supernatant, TPA alone = 100%” value ([2]; compound 100 nM)?
**A.** Its value is 121%.

**Q.** And the “amount of TNF-α in the supernatant, TPA alone = 100%” value ([2]; compound 0.3 μM)?
**A.** The value was 195%.

**Q.** With `CC(C)c1cccc(C(C)C)c1N1Cc2ccccc2C1` [Compound 144, N-(2,6-diisopropylphenyl)isoindoline] as the compound, how does the melting point read?
**A.** Its melting point is 130.9 to 132 °C.

**Q.** And the “amount of TNF-α, TPA alone = 100%” value ([2]; compound 100 μM)?
**A.** Its value is 319%.

**Q.** For `Cc1ccc2c(c1)C(=O)N(c1c(C(C)C)cccc1C(C)C)C2=O` [Compound 171], which melting point is on record?
**A.** Its melting point is 162.9 to 163.2 °C.

**Q.** What about the “amount of TNF-α, TPA alone = 100%” value ([2]; compound 10 μM) of the same compound?
**A.** The value was 421%.

**Q.** For `CC(C)c1cccc(C(C)C)c1N1C(=O)c2ccc(C(C)(C)C)cc2C1=O` [Compound 173, N-(2,6-diisopropylphenyl)-5-tert-butyl phthalimide], which melting point is on record?
**A.** Its melting point is 234 to 234.8 °C.

**Q.** And the “amount of TNF-α, TPA alone = 100%” value ([2]; compound 10 μM)?
**A.** Its value is 251%.

**Q.** Which results are given for `CC(C)c1cccc(C(C)C)c1N1C(=O)c2ccccc2C1=S` [Compound 174, N-(2,6-diisopropylphenyl)thiophthalimide]?
**A.** amount of TNF-α, Okadaic acid alone = 100% ([1]; compound 1 μM): 96%; amount of TNF-α, Okadaic acid alone = 100% ([1]; compound 10 μM): 15%; amount of TNF-α, Okadaic acid alone = 100% ([1]; compound 100 μM): 0%; amount of TNF-α, TPA alone = 100% ([2]; compound 1 μM): 332%; amount of TNF-α, TPA alone = 100% ([2]; compound 10 μM): 682%; amount of TNF-α, TPA alone = 100% ([2]; compound 100 μM): 1326%; Amount of hemoglobin, value in parentheses (dose 0 = 100) ([3]; 100 mg/kg intraperitoneally everyday, 8 days after matrigel injection (Table 12)): 54; Amount of hemoglobin ([3]; 100 mg/kg intraperitoneally everyday, 8 days after matrigel injection, dose 0 = 307.3 (Table 12)): 164.8 μg/gel

**Q.** Which melting point does the source give for `CCCCCCOc1ccc2c(c1)C(=O)N(c1c(C(C)C)cccc1C(C)C)C2=O` [Compound 193] here?
**A.** Its melting point is 117 to 118 °C.

**Q.** Which melting point does the source give for `CSc1ccccc1N1C(=O)c2ccc(C)cc2C1=O` [Compound 195] here?
**A.** Its melting point is 175 to 177 °C.
